Reference: ChEMBL document CHEMBL3991601, “The target landscape of clinical kinase drugs” (Science, 2017)
Active and inactive are the calls of the source.

Experiments:
[1] = target: T1, ATP-dependent 6-phosphofructokinase, platelet type (Homo sapiens, UniProt Q01813)
T1 sequence (Q01813 whole entry): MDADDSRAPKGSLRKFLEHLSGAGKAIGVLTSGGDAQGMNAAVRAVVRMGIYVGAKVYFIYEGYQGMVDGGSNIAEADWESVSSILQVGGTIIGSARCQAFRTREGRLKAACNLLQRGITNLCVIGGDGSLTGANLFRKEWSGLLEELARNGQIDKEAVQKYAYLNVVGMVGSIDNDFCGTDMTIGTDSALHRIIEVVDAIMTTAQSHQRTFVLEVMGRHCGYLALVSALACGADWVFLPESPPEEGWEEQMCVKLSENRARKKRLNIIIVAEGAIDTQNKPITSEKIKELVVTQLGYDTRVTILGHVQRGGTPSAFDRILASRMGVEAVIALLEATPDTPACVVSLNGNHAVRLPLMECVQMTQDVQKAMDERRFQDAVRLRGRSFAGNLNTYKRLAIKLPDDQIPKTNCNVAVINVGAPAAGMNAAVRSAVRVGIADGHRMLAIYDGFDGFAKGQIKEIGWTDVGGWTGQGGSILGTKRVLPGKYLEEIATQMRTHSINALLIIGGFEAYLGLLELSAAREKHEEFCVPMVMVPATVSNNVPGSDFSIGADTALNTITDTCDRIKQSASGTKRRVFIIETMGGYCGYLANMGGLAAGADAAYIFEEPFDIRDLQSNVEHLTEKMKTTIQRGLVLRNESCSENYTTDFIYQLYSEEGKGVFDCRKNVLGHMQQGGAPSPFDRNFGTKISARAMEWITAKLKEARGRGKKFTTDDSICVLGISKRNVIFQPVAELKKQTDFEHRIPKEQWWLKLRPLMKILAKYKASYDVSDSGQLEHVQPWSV

[2] = target: T2, Interleukin-1 receptor-associated kinase 3 (Homo sapiens, UniProt Q9Y616)
T2 sequence (Q9Y616 whole entry): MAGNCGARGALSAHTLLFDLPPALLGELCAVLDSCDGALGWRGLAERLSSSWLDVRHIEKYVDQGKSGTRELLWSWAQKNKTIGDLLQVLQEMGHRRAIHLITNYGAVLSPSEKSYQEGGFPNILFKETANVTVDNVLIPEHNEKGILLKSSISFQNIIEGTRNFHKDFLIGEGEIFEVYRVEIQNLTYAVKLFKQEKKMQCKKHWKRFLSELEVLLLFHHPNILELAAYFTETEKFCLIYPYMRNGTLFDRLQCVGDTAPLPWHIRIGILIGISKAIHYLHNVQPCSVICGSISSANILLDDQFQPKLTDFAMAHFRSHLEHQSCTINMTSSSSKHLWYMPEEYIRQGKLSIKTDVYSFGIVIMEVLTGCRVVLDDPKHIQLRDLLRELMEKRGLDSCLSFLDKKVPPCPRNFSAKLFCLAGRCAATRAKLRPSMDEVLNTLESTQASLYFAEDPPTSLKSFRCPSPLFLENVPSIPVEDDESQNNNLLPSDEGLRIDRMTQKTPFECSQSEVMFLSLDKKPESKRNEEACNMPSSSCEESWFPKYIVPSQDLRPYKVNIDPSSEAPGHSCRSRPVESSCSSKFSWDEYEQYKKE

[3] = target: Non-receptor tyrosine-protein kinase TYK2 (Homo sapiens, UniProt P29597)
Non-receptor tyrosine-protein kinase TYK2, sequence (P29597 whole entry): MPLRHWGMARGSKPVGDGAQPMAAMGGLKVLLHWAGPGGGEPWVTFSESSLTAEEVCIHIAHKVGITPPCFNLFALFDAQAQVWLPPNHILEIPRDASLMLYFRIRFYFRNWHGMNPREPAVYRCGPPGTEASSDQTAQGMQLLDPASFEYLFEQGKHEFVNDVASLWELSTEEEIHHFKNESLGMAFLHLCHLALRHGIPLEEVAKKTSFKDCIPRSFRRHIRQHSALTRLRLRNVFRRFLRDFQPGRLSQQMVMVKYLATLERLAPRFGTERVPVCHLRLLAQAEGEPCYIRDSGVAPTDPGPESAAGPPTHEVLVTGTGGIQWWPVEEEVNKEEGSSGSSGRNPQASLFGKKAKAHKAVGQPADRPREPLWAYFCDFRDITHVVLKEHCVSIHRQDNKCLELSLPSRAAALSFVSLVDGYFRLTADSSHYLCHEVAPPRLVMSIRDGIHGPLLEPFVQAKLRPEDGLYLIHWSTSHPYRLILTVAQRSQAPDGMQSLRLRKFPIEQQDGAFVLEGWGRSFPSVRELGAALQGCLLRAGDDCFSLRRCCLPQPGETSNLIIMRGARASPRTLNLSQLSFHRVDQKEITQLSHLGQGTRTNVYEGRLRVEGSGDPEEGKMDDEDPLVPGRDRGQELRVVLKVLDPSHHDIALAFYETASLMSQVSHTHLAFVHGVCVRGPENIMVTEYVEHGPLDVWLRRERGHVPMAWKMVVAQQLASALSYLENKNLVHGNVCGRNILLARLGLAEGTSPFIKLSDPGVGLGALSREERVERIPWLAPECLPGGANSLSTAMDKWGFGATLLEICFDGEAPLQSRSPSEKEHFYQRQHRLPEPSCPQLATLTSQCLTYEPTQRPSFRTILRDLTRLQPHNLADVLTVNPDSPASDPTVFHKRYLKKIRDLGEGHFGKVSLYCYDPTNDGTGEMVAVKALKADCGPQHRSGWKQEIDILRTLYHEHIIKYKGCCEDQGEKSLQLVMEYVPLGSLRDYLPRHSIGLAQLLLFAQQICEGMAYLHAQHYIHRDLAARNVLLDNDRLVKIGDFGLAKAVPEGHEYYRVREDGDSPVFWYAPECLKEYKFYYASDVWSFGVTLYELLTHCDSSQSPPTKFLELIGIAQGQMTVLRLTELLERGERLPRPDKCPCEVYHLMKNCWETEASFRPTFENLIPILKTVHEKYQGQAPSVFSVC

[4] = target: T3, NUAK family SNF1-like kinase 2 (Homo sapiens, UniProt Q9H093)
T3 sequence (Q9H093 whole entry): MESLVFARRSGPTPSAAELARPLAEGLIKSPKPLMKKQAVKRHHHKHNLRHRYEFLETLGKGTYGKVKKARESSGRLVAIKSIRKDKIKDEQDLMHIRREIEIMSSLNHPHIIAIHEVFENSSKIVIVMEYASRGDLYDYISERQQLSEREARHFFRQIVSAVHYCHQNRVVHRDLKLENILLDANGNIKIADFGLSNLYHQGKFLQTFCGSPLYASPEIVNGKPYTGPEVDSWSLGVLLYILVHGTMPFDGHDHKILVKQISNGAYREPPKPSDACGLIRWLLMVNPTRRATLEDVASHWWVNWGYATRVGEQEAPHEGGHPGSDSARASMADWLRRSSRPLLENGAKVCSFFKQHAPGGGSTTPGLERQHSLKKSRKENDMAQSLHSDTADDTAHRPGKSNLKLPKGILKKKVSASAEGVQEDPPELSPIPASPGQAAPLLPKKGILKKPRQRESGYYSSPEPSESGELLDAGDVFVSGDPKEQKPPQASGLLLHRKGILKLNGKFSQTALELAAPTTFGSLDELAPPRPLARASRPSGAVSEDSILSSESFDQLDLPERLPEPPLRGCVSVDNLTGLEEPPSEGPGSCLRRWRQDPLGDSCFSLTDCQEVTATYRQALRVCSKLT

[5] = target: Ribosomal protein S6 kinase beta-1 (Homo sapiens, UniProt P23443)
Ribosomal protein S6 kinase beta-1, sequence (P23443 whole entry): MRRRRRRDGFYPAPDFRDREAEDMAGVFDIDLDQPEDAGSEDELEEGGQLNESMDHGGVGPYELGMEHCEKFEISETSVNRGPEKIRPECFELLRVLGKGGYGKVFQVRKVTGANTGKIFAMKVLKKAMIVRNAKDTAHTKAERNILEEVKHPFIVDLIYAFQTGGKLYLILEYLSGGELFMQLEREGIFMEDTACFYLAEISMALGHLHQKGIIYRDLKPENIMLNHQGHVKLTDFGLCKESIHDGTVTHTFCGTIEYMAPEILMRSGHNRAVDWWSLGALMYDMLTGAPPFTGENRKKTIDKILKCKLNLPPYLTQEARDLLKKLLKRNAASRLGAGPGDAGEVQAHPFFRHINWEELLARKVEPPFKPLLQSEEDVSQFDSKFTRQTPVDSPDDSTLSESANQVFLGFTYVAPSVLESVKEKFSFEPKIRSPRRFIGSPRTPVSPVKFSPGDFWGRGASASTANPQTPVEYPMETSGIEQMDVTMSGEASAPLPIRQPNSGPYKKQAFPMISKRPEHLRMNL

[6] = target: T4, Tyrosine-protein kinase Tec (Homo sapiens, UniProt P42680)
T4 sequence (P42680 whole entry): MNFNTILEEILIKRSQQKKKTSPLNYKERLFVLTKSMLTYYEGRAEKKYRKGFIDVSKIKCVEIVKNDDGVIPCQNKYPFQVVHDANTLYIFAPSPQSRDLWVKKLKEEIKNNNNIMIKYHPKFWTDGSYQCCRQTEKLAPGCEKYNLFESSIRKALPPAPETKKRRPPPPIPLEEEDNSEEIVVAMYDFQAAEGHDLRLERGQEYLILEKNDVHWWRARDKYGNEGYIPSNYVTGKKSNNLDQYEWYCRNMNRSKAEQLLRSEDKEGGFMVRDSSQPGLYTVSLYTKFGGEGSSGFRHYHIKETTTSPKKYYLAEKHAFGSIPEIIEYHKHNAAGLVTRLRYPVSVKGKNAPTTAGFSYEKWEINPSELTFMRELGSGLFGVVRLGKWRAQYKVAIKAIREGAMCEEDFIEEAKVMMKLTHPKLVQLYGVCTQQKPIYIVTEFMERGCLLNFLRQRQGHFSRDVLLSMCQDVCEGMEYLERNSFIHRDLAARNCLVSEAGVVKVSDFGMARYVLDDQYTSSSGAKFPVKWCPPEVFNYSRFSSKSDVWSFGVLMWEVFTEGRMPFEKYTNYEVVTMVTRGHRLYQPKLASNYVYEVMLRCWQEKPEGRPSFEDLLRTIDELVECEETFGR
Further: in the data inactive means no Kd found up to 30 µM.

Compound	Kd [1]	Kd [2]	Kd [3]	Kd [4]	Kd [5]	Kd [6]
COc1ncc(-c2ccc3nccc(-c4ccnnc4)c3c2)cc1NS(=O)(=O)c1ccc(F)cc1F [OMIPALISIB]	> 30 µM (inactive)	3.03 µM (active)	> 30 µM (inactive)	> 30 µM (inactive)	> 30 µM (inactive)	> 30 µM (inactive)
C[C@H]1CNCCCN1S(=O)(=O)c1cccc2cncc(F)c12	> 30 µM (inactive)	> 30 µM (inactive)	> 30 µM (inactive)	> 30 µM (inactive)	> 30 µM (inactive)	> 30 µM (inactive)
Cc1cnc(NC(=O)Nc2cc(Br)c(C)cc2OC[C@@H]2CNCCO2)cn1 [RABUSERTIB]	> 30 µM (inactive)	> 30 µM (inactive)	> 30 µM (inactive)	> 30 µM (inactive)	> 30 µM (inactive)	> 30 µM (inactive)
Cc1cccc(-c2nn3c(c2-c2ccnc4ccc(C(N)=O)cc24)CCC3)n1 [GALUNISERTIB]	> 30 µM (inactive)	> 30 µM (inactive)	> 30 µM (inactive)	> 30 µM (inactive)	> 30 µM (inactive)	> 30 µM (inactive)
COc1cc([C@@H]2c3cc4c(cc3[C@H](O)[C@H]3COC(=O)[C@@H]23)OCO4)cc(OC)c1OC [AXL-1717]	> 30 µM (inactive)	> 30 µM (inactive)	> 30 µM (inactive)	> 30 µM (inactive)	> 30 µM (inactive)	> 30 µM (inactive)
Cc1csc(-c2nnc(Nc3ccc(Oc4ncccc4-c4ccnc(N)n4)cc3)c3ccccc23)c1 [AMG-900]	> 30 µM (inactive)	> 30 µM (inactive)	> 30 µM (inactive)	> 30 µM (inactive)	> 30 µM (inactive)	> 30 µM (inactive)
COCc1c(-c2ccc(NC(=O)Nc3cc(C(F)(F)F)ccc3F)c(F)c2)c2c(N)ncnn2c1CN1CCOCC1	> 30 µM (inactive)	> 30 µM (inactive)	> 30 µM (inactive)	> 30 µM (inactive)	> 30 µM (inactive)	> 30 µM (inactive)
Nc1ncnc2c1c(-c1cccc(OCc3ccccc3)c1)cn2[C@H]1C[C@@H](CN2CCC2)C1 [AEW-541]	> 30 µM (inactive)	> 30 µM (inactive)	> 30 µM (inactive)	> 30 µM (inactive)	> 30 µM (inactive)	> 30 µM (inactive)
CN1CCN(CCOc2cc(OC3CCOCC3)c3c(Nc4c(Cl)ccc5c4OCO5)ncnc3c2)CC1 [SARACATINIB]	> 30 µM (inactive)	> 30 µM (inactive)	> 30 µM (inactive)	> 30 µM (inactive)	> 30 µM (inactive)	> 30 µM (inactive)
CNC(=O)c1cc(Oc2ccc(NC(=O)Nc3cc(C(C)(C)C)nn3-c3ccc4ncccc4c3)c(F)c2)ccn1 [REBASTINIB]	> 30 µM (inactive)	> 30 µM (inactive)	> 30 µM (inactive)	> 30 µM (inactive)	> 30 µM (inactive)	> 30 µM (inactive)
C=CC(=O)N1CCC[C@H](n2c(=O)n(-c3ccc(Oc4ccccc4)cc3)c3c(N)ncnc32)C1	> 30 µM (inactive)	> 30 µM (inactive)	> 30 µM (inactive)	> 30 µM (inactive)	> 30 µM (inactive)	0.006 µM
COc1ccc(S(=O)(=O)N(C(C)=O)c2ccccc2/C=C/c2cc[n+]([O-])cc2)cc1 [HMN-214]	> 30 µM (inactive)	> 30 µM (inactive)	> 30 µM (inactive)	> 30 µM (inactive)	> 30 µM (inactive)	> 30 µM (inactive)
COc1cc2c(Nc3ccc(Cl)c(Cl)c3F)ncnc2cc1OC[C@@H]1C[C@@H]2CN(C)C[C@@H]2C1 [TESEVATINIB]	> 30 µM (inactive)	> 30 µM (inactive)	> 30 µM (inactive)	> 30 µM (inactive)	> 30 µM (inactive)	> 30 µM (inactive)
CO[C@H]1C[C@@H]2CC[C@@H](C)[C@@](O)(O2)C(=O)C(=O)N2CCCC[C@H]2C(=O)O[C@H]([C@H](C)C[C@@H]2CC[C@@H](OC(=O)C(C)(CO)CO)[C@H](OC)C2)CC(=O)[C@H](C)/C=C(\C)[C@@H](O)[C@@H](OC)C(=O)[C@H](C)C[C@H](C)/C=C/C=C/C=C/1C [TEMSIROLIMUS]	> 30 µM (inactive)	> 30 µM (inactive)	> 30 µM (inactive)	> 30 µM (inactive)	> 30 µM (inactive)	> 30 µM (inactive)
Cn1cnc2c(F)c(Nc3ccc(Br)cc3F)c(C(=O)NOCCO)cc21 [BINIMETINIB]	> 30 µM (inactive)	> 30 µM (inactive)	> 30 µM (inactive)	> 30 µM (inactive)	> 30 µM (inactive)	> 30 µM (inactive)
CCOc1cc2ncc(C#N)c(Nc3ccc(F)c(Cl)c3)c2cc1NC(=O)/C=C/CN(C)C [PELITINIB]	> 30 µM (inactive)	> 30 µM (inactive)	> 30 µM (inactive)	> 30 µM (inactive)	> 30 µM (inactive)	> 30 µM (inactive)
COc1c(OCCCN2CCOCC2)ccc2c1N=C(NC(=O)c1cnc(N)nc1)N1CCN=C21 [COPANLISIB]	> 30 µM (inactive)	> 30 µM (inactive)	> 30 µM (inactive)	> 30 µM (inactive)	> 30 µM (inactive)	> 30 µM (inactive)
O=c1[nH]ccc2cc(OC3CCNCC3)ccc12 [SAR-407899 FREE BASE]	> 30 µM (inactive)	> 30 µM (inactive)	> 30 µM (inactive)	> 30 µM (inactive)	> 30 µM (inactive)	> 30 µM (inactive)
CNC(=O)c1cccc2cc(Oc3ccnc4cc(OCC5(N)CC5)c(OC)cc34)ccc12 [LUCITANIB]	> 30 µM (inactive)	> 30 µM (inactive)	> 30 µM (inactive)	> 30 µM (inactive)	> 30 µM (inactive)	> 30 µM (inactive)
C=CC(=O)Nc1cc2c(Nc3ccc(F)c(Cl)c3)ncnc2cc1C#CC(C)(C)N1CCN(C)CC1 [AV-412 FREE BASE]	> 30 µM (inactive)	> 30 µM (inactive)	> 30 µM (inactive)	> 30 µM (inactive)	> 30 µM (inactive)	0.422 µM (active)
